# Laboratory results as given in ChEMBL document CHEMBL5543154, “Structural Elucidation and Antiviral Activity of Covalent Cathepsin L Inhibitors” (J Med Chem, 2024).
# Experiments:
# [1] = Cytotoxicity against african green monkey Vero 76 cells assessed as reduction in cell viability incubated for 48 hrs by neutral red uptake assay; assay type: toxicity, cell-based; conditions: chlorocebus sabaeus
# [2] = test system: SARS-CoV-2; assay type: functional, Severe acute respiratory syndrome coronavirus 2, Omicron, Vero; conditions: dose 100 nM; time 24 hrs
# [3] = test system: SARS-CoV-2; assay: Antiviral activity against SARS CoV-2 USA-WA1/2020 infected in african green monkey Vero 76 cells assessed as virus-induced cytopathic effect incubated for 5 days by neutral red uptake assay; assay type: functional, organism-based; conditions: Severe acute respiratory syndrome coronavirus 2, USA-WA1/2020, Vero 76, 120 h
# [4] = biological target: Procathepsin L (Homo sapiens) (UniProt P07711); assay: Binding affinity to Cathepsin L (unknown origin) expressed in Komagataella pastoris GS115 assessed as thermal stabilization by mesuring melting temperature by nanoDSF analysis
# Chain of Procathepsin L (Homo sapiens) (P07711 114-333 limits assumed): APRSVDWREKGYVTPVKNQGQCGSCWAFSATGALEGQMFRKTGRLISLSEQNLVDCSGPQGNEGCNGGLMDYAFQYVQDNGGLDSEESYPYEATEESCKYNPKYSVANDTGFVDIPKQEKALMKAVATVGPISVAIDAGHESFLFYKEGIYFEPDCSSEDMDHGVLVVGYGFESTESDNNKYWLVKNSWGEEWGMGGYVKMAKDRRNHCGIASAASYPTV
SMILES,CC50 at 48 h [1],Activity [2],EC50 [3],ΔTm [4]
CCCC(NC(=O)C(CC(C)C)NC(=O)OCc1ccccc1)C(=O)C(=O)NCc1ccccn1 (centres undefined),> 50 µM,50%,< 1 µM,–
CN(C)C(=O)C(Cc1ccccc1)NC(=O)[C@H]1O[C@@H]1C(=O)NCCc1ccccn1 (relative stereo),–,–,–,12 °C
